Peptide text beside a SMILES is read from it. A value given as a limit tells only on which side of the number the result lay.

From paper PMC3526597, “High-Glucose-Induced Endothelial Cell Injury Is Inhibited by a Peptide Derived from Human Apolipoprotein E” (PLoS ONE, 2012) come the findings set out here.

A short description of the data set: Corneal penetration assay (aqueous humor level after eye drop). The settings on record: for Total / Measure concentration: mouse aqueous humor, UPLC-MS; for Measure concentration: sample mixed with 1 ml 0.1% formic acid. It counts as in vivo, mouse. Here is the method: The apoEdp peptide (LRKLRKRLLLRKLRKRLL) is rich in cationic amino acids lysine and arginine. ApoEdp is more cationic than HIV-1 Tat cell penetrating peptide (Table 1). We hypothesized that apoEdp could act as a corneal penetrating peptide.
Mouse eyes were treated with 1% apoEdp drops. At 0, 1, 2, 3, hours post-treatment, mice were sacrificed and eyes were enucleated. The globes were washed with sterile PBS three times and aqueous humor was aspirated using a 27-gauge needle and 1 mL syringe. The mouse aqueous humor samples were mixed with 1 ml of 0.1% formic acid solution and allowed to stand for 5 minutes. The samples were filtered with a 0.2-micron filter and analyzed using a Waters Acquity UPLC system (Milford, MA) with mass spectrophotometrical detection. […] These peaks included 483.9 m/z 604.4 m/z, and 805.6 m/z. We used the […] peak for the analysis because it was the strongest. For the UPLC analysis, we used a BEH300 C4 column 2.1 mm×100 mm×1.7 µm. A 2 component mobile phase was used with component 1:0.1% formic Acid, and Component 2: Acetonitrile with 0.1% formic acid. The flow rate was 0.2 ml/min and gradient elution was used with a linear gradient.

[1] abbreviates: 2 hours after 1% apoEdp eye drop, left eye.
The mark [2] stands for this setting: 2 hours after 1% apoEdp eye drop, right eye.
The mark [3] stands for this setting: 3 hours after 1% apoEdp eye drop, left eye.
The mark [4] stands for this setting: 3 hours after 1% apoEdp eye drop, right eye.

Turning to `CC(=O)N[C@@H](CC(C)C)C(=O)N[C@@H](CCCNC(=N)N)C(=O)N[C@@H](CCCCN)C(=O)N[C@@H](CC(C)C)C(=O)N[C@@H](CCCNC(=N)N)C(=O)N[C@@H](CCCCN)C(=O)N[C@@H](CCCNC(=N)N)C(=O)N[C@@H](CC(C)C)C(=O)N[C@@H](CC(C)C)C(=O)N[C@@H](CC(C)C)C(=O)N[C@@H](CCCNC(=N)N)C(=O)N[C@@H](CCCCN)C(=O)N[C@@H](CC(C)C)C(=O)N[C@@H](CCCNC(=N)N)C(=O)N[C@@H](CCCCN)C(=O)N[C@@H](CCCNC(=N)N)C(=O)N[C@@H](CC(C)C)C(=O)N[C@@H](CC(C)C)C(N)=O` [apoEdp] (Ac-LRKLRKRLLLRKLRKRLL-NH2), the “time to reach the anterior chamber of the eye” value (applied topically (1% eye drop), mouse eyes) was no more than 3 h. In addition, the Total turned out to be 3.89 ng under setting [1], 5.9 ng under setting [2], 58.08 ng under setting [3] and 36.3 ng under setting [4]. For the same compound, the Measure concentration runs as follows: under setting [1], 0.004 µg/mL; under setting [2], 0.006 µg/mL; under setting [3], 0.058 µg/mL; under setting [4], 0.036 µg/mL.
